Experimental data: the supplement of paper PMC10307832

How the values were obtained:
Assay in all cases: relative viability (nuclei count vs DMSO), 5 days (fraction); higher = more cells survive
Vemurafenib + Lapatinib = compound: CCCS(=O)(=O)Nc1ccc(F)c(C(=O)c2c[nH]c3ncc(-c4ccc(Cl)cc4)cc23)c1F [Vemurafenib] + CS(=O)(=O)CCNCc1ccc(-c2ccc3ncnc(Nc4ccc(OCc5cccc(F)c5)c(Cl)c4)c3c2)o1 [Lapatinib] (partner 2 µM)
How it was run: (§1)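 Relative viability equals treated-well nuclei counts divided by vehicle-well nuclei counts. Counts came from 4× images of lung cancer cell lines grown in 1536-well plates for 5 days after pin-tool dosing on the day after seeding. Dosing used one drug alone or a fixed anchor-drug dose plus five library-drug doses (not always all listed) in √10 steps, and values are medians of duplicate plates.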

OSI-027 + Foretinib = compound: COc1cccc2cc(-c3nc([C@H]4CC[C@H](C(=O)O)CC4)n4ncnc(N)c34)[nH]c12 [OSI-027] + COc1cc2c(Oc3ccc(NC(=O)C4(C(=O)Nc5ccc(F)cc5)CC4)cc3F)ccnc2cc1OCCCN1CCOCC1 [Foretinib] (partner 0.25 µM)
How it was run: as §1

OSI-027 + AZD7762 = compound: COc1cccc2cc(-c3nc([C@H]4CC[C@H](C(=O)O)CC4)n4ncnc(N)c34)[nH]c12 [OSI-027] + NC(=O)Nc1cc(-c2cccc(F)c2)sc1C(=O)N[C@H]1CCCNC1 [AZD7762] (partner 0.2 µM)
How it was run: as §1

Alpelisib + Navitoclax = compound: Cc1nc(NC(=O)N2CCC[C@H]2C(N)=O)sc1-c1ccnc(C(C)(C)C(F)(F)F)c1 [Alpelisib] + CC1(C)CCC(c2ccc(Cl)cc2)=C(CN2CCN(c3ccc(C(=O)NS(=O)(=O)c4ccc(N[C@H](CCN5CCOCC5)CSc5ccccc5)c(S(=O)(=O)C(F)(F)F)c4)cc3)CC2)C1 [Navitoclax] (partner 0.5 µM)
How it was run: as §1

Cell Line | relative viability (Vemurafenib + Lapatinib; first compound 0.03162 µM) | relative viability (Vemurafenib + Lapatinib; first compound 0.1 µM) | relative viability (Vemurafenib + Lapatinib; first compound 0.3162 µM) | relative viability (Vemurafenib + Lapatinib; first compound 1 µM) | relative viability (OSI-027 + Foretinib; first compound 0.01 µM) | relative viability (OSI-027 + Foretinib; first compound 0.03162 µM) | relative viability (OSI-027 + Foretinib; first compound 0.1 µM) | relative viability (OSI-027 + Foretinib; first compound 0.3162 µM) | relative viability (OSI-027 + Foretinib; first compound 1 µM) | relative viability (OSI-027 + AZD7762; first compound 0.01 µM) | relative viability (OSI-027 + AZD7762; first compound 0.03162 µM) | relative viability (OSI-027 + AZD7762; first compound 0.1 µM) | relative viability (OSI-027 + AZD7762; first compound 0.3162 µM) | relative viability (OSI-027 + AZD7762; first compound 1 µM) | relative viability (Alpelisib + Navitoclax; first compound 0.04 µM) | relative viability (Alpelisib + Navitoclax; first compound 0.1265 µM) | relative viability (Alpelisib + Navitoclax; first compound 0.4 µM) | relative viability (Alpelisib + Navitoclax; first compound 1.265 µM) | relative viability (Alpelisib + Navitoclax; first compound 4 µM)
NCI-H596 | 1.04 | 1.03 | 0.874 | 1.07 | 0.834 | 0.923 | 0.781 | 0.59 | 0.602 | 1.14 | 1.08 | 1.08 | 1.06 | 0.943 | 0.928 | 0.919 | 0.815 | 0.52 | 0.418
201T | 0.965 | 1.02 | 1.02 | 1.04 | – | 1.09 | 1.07 | 0.944 | 0.459 | 0.562 | 0.691 | 0.585 | 0.472 | 0.511 | 1.16 | 1.16 | 1.2 | 1.15 | 1.14
HCC-78 | 0.725 | 0.832 | 0.982 | 0.386 | 0.551 | 0.511 | 0.52 | 0.425 | 0.366 | 0.62 | 0.638 | 0.488 | 0.499 | 0.354 | 0.745 | 0.609 | 0.738 | 0.373 | 0.518
